Key:
Assay type in all cases: physicochemical
[1] = Amount of cyclization of the precursor under alkaline hydrolysis conditions (HPLC); conditions: 20° C., first step of cyclization only, % relative to total amount of starting compound
Experimental: Buffer solutions were prepared by dissolving two phosphate or borate buffer tablets (origin: Fluka, Switzerland) in a mixture of 160 ml water and 40 ml acetonitrile, respectively. To determine the exact pH value of the reaction solution, 10 ml of the buffer solutions were diluted with 2 ml of acetonitrile and the pH values measured (on a Mettler Toledo MP220 apparatus with an InLab 410 Ag/AgCl glass electrode) to be 7.62 (phosphate buffer) and 10.47 (borate buffer).
0.2 ml of a solution of 35 to 45 mg of the precursors in 25 ml of acetonitrile were added to 1.0 ml of a buffer solution at 20° C. The mixture was immediately injected in a HPLC apparatus (t=0), eluted at 1 ml/min on a reversed phase column with a mixture of water/acetonitrile containing 0.1% of TFA. Then the decrease of the amount of precursor and the simultaneous formation of the cyclized products was monitored at different time intervals at λ=254 and 280 nm. Chromatograms were recorded on a Macherey-Nagel, Nucleosil® 100-5 C18 column (250×4 mm i.d.) using a water/acetonitrile gradient (70:30 to 20:80 during 20 min) or on a Merck Chromolith™ SpeedROD RP-C18e column (50×4.6 mm i.d.) using a water/acetonitrile gradient (70:30 to 40:60 during 3 min).

[2] = Measure of fragrance release (hydrolysis) by UV spectroscopy; conditions: phosphate buffer, 20° C., 260-360 nm
Experimental: 2 ml of a precursor solution (35-55 mg in 25 ml of acetonitrile, at 20° C.) were added, at t=0, to 10 ml of a phosphate buffer solution (prepared as described in Example 14).
Hydrolysis was followed by recording the absorption spectra of the reaction mixture at constant time intervals in the range of 260-360 nm with a scanning rate of 960 nm/min until completion of the hydrolysis.

[3] = Amount of perfumery alcohols released by alkaline hydrolysis (HPLC); conditions: % relative to total amount of starting compound
Experimental: […] To determine the exact pH value of the reaction solution, 10 ml of the buffer solutions were diluted with 2 ml of acetonitrile and the pH values measured (on a Mettler Toledo […]).
About 25 mg of the precursors were placed in 1 ml of a buffer solution, 0.2 ml of acetonitrile was added and the supernatant solution was immediately injected in a […] HPLC apparatus (t=0), eluted at 3 ml/min on a reversed phase column with a mixture of water/acetonitrile containing 0.1% of TFA. The amount of the released alcohol was monitored by HPLC analysis at different time intervals at λ=214 or 254 nm. An external calibration curve for the corresponding alcohol in acetonitrile has been obtained from 4-8 dilutions. Chromatograms were recorded on a Merck Chromolith™ Performance RP-C18e column (100×4.6 mm i.d.) using a water/acetonitrile gradient (100:0 for 0.2 min then to 0:100 during 10 min or 80:20 to 20:80 during 10 min).

Molecule: CCCC(Cc1ccccc1)OC(=O)c1ccccc1C(=O)NCCCN(C)CCCNC(=O)c1ccccc1C(=O)OC(CCC)Cc1ccccc1 (racemic) [Example 2b, (±)-bis(1-benzylbutyl)2,2′-(6-methyl-1,11-dioxo-2,6,10-triazaundecane-1,11-diyl)dibenzoate]
- Amount of cyclized precursor ([1]; pH 7.62, 2.1 h): 98%

Molecule: C=CC(C)(CCC=C(C)C)OC(=O)c1ccccc1C(=O)NCCCN(C)CCCNC(=O)c1ccccc1C(=O)OC(C)(C=C)CCC=C(C)C (racemic) [Example 5b, (±)-bis(1,5-dimethyl-1-vinyl-4-hexenyl) 2,2′-(6-methyl-1,11-dioxo-2,6,10-triazaundecane-1,11-diyl)dibenzoate]
- Amount of cyclized precursor ([1]; pH 7.62, 9.4 h): 72%
- Hydrolysis followed by UV absorption spectra [2]: verified

Molecule: CC(C)=CCC/C(C)=C/COC(=O)/C=C\C(=O)NCCNC(=O)/C=C\C(=O)OC/C=C(\C)CCC=C(C)C [Example 1, (6E,11Z,19Z,24E)-2,6,25,29-tetramethyl-9,22-dioxa-14,17-diaza-2,6,11,19,24,28-triaconta-hexaene-10,13,18,21-tetrone]
- Amount of cyclized precursor ([1]; pH 7.62, 4.7 h): 97%

Molecule: CN(CCCNC(=O)c1ccccc1C(=O)OC(C)(C)Cc1ccccc1)CCCNC(=O)c1ccccc1C(=O)OC(C)(C)Cc1ccccc1 [Example 3b, bis(1,1-dimethyl-2-phenylethyl) 2,2′-(6-methyl-1,11-dioxo-2,6,10-triazaundecane-1,11-diyl)dibenzoate]
- Amount of cyclized precursor ([1]; pH 7.62, 22.4 h): 69%
- Hydrolysis followed by UV absorption spectra [2]: verified

Molecule: CC(C)(Cc1ccccc1)OC(=O)c1ccccc1C(=O)NCCCCCCCNC(=O)c1ccccc1C(=O)OC(C)(C)Cc1ccccc1 [Example 4, bis(1,1-dimethyl-2-phenylethyl) 2,2′-(1,11-dioxo-2,10-diazaundecane-1,11-diyl)dibenzoate]
- Amount of cyclized precursor ([1]; pH 10.47, 3.0 h): 98%

Molecule: CC(C)(Cc1ccccc1)OC(=O)c1ccccc1C(=O)NCCCN(CCCCN(CCCNC(=O)c1ccccc1C(=O)OC(C)(C)Cc1ccccc1)CCCNC(=O)c1ccccc1C(=O)OC(C)(C)Cc1ccccc1)CCCNC(=O)c1ccccc1C(=O)OC(C)(C)Cc1ccccc1 [Example 6b, Dendrimer 4-cascade: 1,4-diaminobutane[4-N,N,N′,N′]:N-(2-[(1,1-dimethyl-2-phenylethoxy)carbonyl]benzoyl)propylamine]
- Amount of cyclized precursor ([1]; pH 7.62, 24.6 h): 80%
- Hydrolysis followed by UV absorption spectra [2]: verified

Molecule: CC(C)(Cc1ccccc1)OC(=O)c1ccccc1C(=O)NCCCN(CCCNC(=O)c1ccccc1C(=O)OC(C)(C)Cc1ccccc1)CCCN(CCCCN(CCCN(CCCNC(=O)c1ccccc1C(=O)OC(C)(C)Cc1ccccc1)CCCNC(=O)c1ccccc1C(=O)OC(C)(C)Cc1ccccc1)CCCN(CCCNC(=O)c1ccccc1C(=O)OC(C)(C)Cc1ccccc1)CCCNC(=O)c1ccccc1C(=O)OC(C)(C)Cc1ccccc1)CCCN(CCCNC(=O)c1ccccc1C(=O)OC(C)(C)Cc1ccccc1)CCCNC(=O)c1ccccc1C(=O)OC(C)(C)Cc1ccccc1 [Example 7]
- Amount of released alcohol ([3]; pH 10.47, 2 d): 29%

Molecule: dendrimer 16-cascade: 1,4-diaminobutane[4-N,N,N′,N′:(1-azabutylidene)^2:N-(2-[(1,1-dimethyl-2-phenylethoxy)carbonyl]benzoyl)propylamine [Example 8]
- Amount of released alcohol ([3]; pH 10.98, 4 d, phosphate-bicarbonate buffer in water/acetonitrile 16:9): 69%

— patent US20040048754A1, “Compounds for a controlled release of active compounds” (priority 2001, published 2004)
